Results published in PMC6214108, “Synthesis and In Vitro Antitumor Activity of Novel Bivalent β-Carboline-3-carboxylic Acid Derivatives with DNA as a Potential Target” (International Journal of Molecular Sciences, 2018).

Experiments:
Type in all cases: cell-based
[1] = system: Hela (cervical carcinoma) cell line; test: MTT cytotoxicity assay, Hela; settings: Homo sapiens, 48 h, mean of three independent experiments, read-out: IC50 (μM) Mean ± SD, Hela
Method: (§1) All cell lines (A549, SGC-7901, Hela, SMMC-7721, and MCF-7) were purchased from the American Type Culture Collection (Manassas, VA, USA), and were cultured in Dulbecco’s modified Eagle’s medium (DMEM, HycloneLaboratories Inc., Logan, Utah, USA) supplemented with 10% fetal bovine serum (FBS, Gibco&Invitrogen, Carlsbad, CA, USA) at 37 °C and 5% CO2.
(§2) The cytotoxic activities of β-carboline-3-carboxylic acid derivatives were investigated by the MTT method, as previously described. Cells (1 × 10^4 cells per well) seeded into 96-well plates (JET, Guangzhou, China) were incubated with DMEM containing various concentrations (2.5, 5, 10, 20, 40, and 80 μM) of β-carbolines (4A, 4B, 4C, 4D, 6a-6f, 6g-6l, 6m-6r, and 6s-6x) for 48 h at 37 °C and 5% CO2. Then, 10 µL of 5 mg/mL MTT reagent dissolved in PBS (Phosphate buffered saline) was added per well, and plates were incubated at 37 °C for 4 h. The medium was carefully removed and 100 µL dimethyl sulfoxide (DMSO) was added to dissolve the formazan crystals. The absorbance was measured at 490 nm with a microplate reader (ThermoFisher Scientific Inc., Waltham, MA, USA). The β-carbolines were dissolved in DMSO as stock solutions (10 mM) at −20 °C, and diluted in the final experimental solution using DMEM before use. A549 (lung carcinoma), SGC-7901 (gastric carcinoma), Hela (cervical carcinoma), SMMC-7721 (liver carcinoma), and MCF-7 (breast carcinoma) cell lines were used for the antitumor activity screening. The IC50 values were the mean values of three independent experiments.

[2] = system: SMMC-7721 (liver carcinoma) cell line; test: MTT cytotoxicity assay, SMMC-7721; settings: Homo sapiens, 48 h, mean of three independent experiments, read-out: IC50 (μM) Mean ± SD, SMMC-7721
Method: as §1, §2

[3] = system: A549 cells; test: Cell cycle assay, PI single staining, flow cytometry; settings: 48 h
Method: The cell cycle was determined by PI single staining. A549 cells (1 × 10^6 cells per well) seeded into 6-well plates (JET, Guangzhou, China) were incubated with DMEM containing various concentrations (2, 4, and 8 μM) of β-carbolines (4B, 6i, 4D, and 6u) for 48 h at 37 °C and 5% CO2. The cells were harvested, washed with pre-cooled PBS (4 °C), and fixed with pre-cooled 90% ethanol (4 °C). Then, the cells were incubated with 20 μL RNAse (30 μg/mL) and 20 μL PI (50 μg/mL) (Sigma Aldrich, Saint Louis, MO, USA) for 30 min at 37 °C. The samples were analyzed using flow cytometry (BD FACSCalibur, San Jose, CA, USA).
Figure 2 The cell cycle was detected by flow cytometry using PI single staining. A549 cells were treated with 4B, 6i, 4D, and 6u at 2, 4, and 8 μM for 48 h, and then stained with PI for 30 min at 37 °C. The proportions of cells containing different DNA content were analyzed by FCS Express 5.0 (De Novo Software, Thornhill, Canada).

[4] = system: MRC5 (normal lung cell) cell line; test: MTT cytotoxicity assay, MRC5; settings: Homo sapiens, 48 h
Method: [The procedure below names another cell line; the source lists this cell line under the same test.] as §2

[5] = system: MCF-7 (breast carcinoma) cell line; test: MTT cytotoxicity assay, MCF-7; settings: Homo sapiens, MCF7, 48 h, mean of three independent experiments, read-out: IC50 (μM) Mean ± SD, MCF-7
Method: as §1, §2

[6] = system: A549 (lung carcinoma) cell line; test: MTT cytotoxicity assay, A549; settings: Homo sapiens, 48 h, mean of three independent experiments, read-out: IC50 (μM) Mean ± SD, A549
Method: as §1, §2

[7] = system: A549 cells; test: Hoechst 33342/PI dual staining, morphological observation of apoptosis; settings: A549, 48 h, 8 μM (Figure 1 legend; method says 4 μM)
Method: The morphological observation of apoptosis was performed by Hoechst 33342 and propidium iodide (PI) dual staining according to the manufacturer’s instructions. A549 cells (2 × 10^4 cells per well) seeded into 24-well plates (JET, Guangzhou, China) were incubated with DMEM containing 4 μM of β-carbolines (4B, 6i, 4D, and 6u) for 48 h at 37 °C and 5% CO2. Then, the cells were stained by Hoechst 33342 and PI at 37 °C for 30 min in dark conditions. Finally, cells were observed and photographed with a fluorescence microscope (LeicaDM6B, Leica, Nussloch, Germany).
Figure 1 Morphological observation was performed by Hoechst 33342/propidium iodide (PI) dual staining. A549 cells were treated with 4B, 6i, 4D, and 6u at 8 μM for 48 h, and then stained with Hoechst 33342 and PI at 37 °C in dark conditions. The stained cells were observed under a fluorescence microscope (Leica DM6B, Leica, Nussloch, Germany). Hoechst 33342 was used to stain the living and apoptotic nuclei, and emitted blue fluorescence (upper). PI was used to stain the dead nuclei and emitted red fluorescence (lower).

## COC(=O)c1cc2c3ccccc3n(Cc3ccccc3C)c2cn1 [Compound 4B]
[1]
  IC50: 31.3 ± 2.33 µM
[2]
  IC50: > 80 µM
[3]; A549, 2 μM
  Percentage of Cell Cycles (%) G1: 59.38%
  Percentage of Cell Cycles (%) G2/M: 15.46%
  Percentage of Cell Cycles (%) S: 25.16%
  Percentage of Cell Cycles (%) SubG1: 6.56%
[3]; A549, 4 μM
  Percentage of Cell Cycles (%) G1: 43.06%
  Percentage of Cell Cycles (%) G2/M: 46.96%
  Percentage of Cell Cycles (%) S: 9.98%
  Percentage of Cell Cycles (%) SubG1: 10.49%
[3]; A549, 8 μM
  Percentage of Cell Cycles (%) G1: 52.09%
  Percentage of Cell Cycles (%) G2/M: 2.1%
  Percentage of Cell Cycles (%) S: 45.81%
  Percentage of Cell Cycles (%) SubG1: 4.15%
[4]
  IC50: 51.78 ± 0.1 µM
[5]
  IC50: > 80 µM
[6]
  IC50: 39.2 ± 1.18 µM
[7]
  Morphological observation of cell apoptosis (Hoechst 33342/PI): could only induce cell apoptosis in a dose-dependent manner

## COC(=O)c1cc2c3ccccc3n(Cc3ccccc3F)c2cn1 [Compound 4D]
[1]
  IC50: 26.4 ± 1.33 µM
[2]
  IC50: 35.6 ± 1.33 µM
[3]; A549, 2 μM
  Percentage of Cell Cycles (%) G1: 56.89%
  Percentage of Cell Cycles (%) G2/M: 18.94%
  Percentage of Cell Cycles (%) S: 24.17%
  Percentage of Cell Cycles (%) SubG1: 6.41%
[3]; A549, 4 μM
  Percentage of Cell Cycles (%) G1: 47.21%
  Percentage of Cell Cycles (%) G2/M: 35.46%
  Percentage of Cell Cycles (%) S: 17.33%
  Percentage of Cell Cycles (%) SubG1: 39.03%
[3]; A549, 8 μM
  Percentage of Cell Cycles (%) G1: 88.01%
  Percentage of Cell Cycles (%) G2/M: 0.3%
  Percentage of Cell Cycles (%) S: 11.69%
  Percentage of Cell Cycles (%) SubG1: 46.29%
[4]
  IC50: 35.38 ± 0.01 µM
[5]
  IC50: 53.9 ± 2.02 µM
[6]
  IC50: 13.94 ± 0.07 µM
[7]
  Morphological observation of cell apoptosis (Hoechst 33342/PI): could induce cell apoptosis and further cell necrosis

## Cc1ccccc1Cn1c2ccccc2c2cc(C(=O)OCCCCCOC(=O)c3cc4c5ccccc5n(Cc5ccccc5C)c4cn3)ncc21 [Compound 6i]
[1]
  IC50: 9.88 ± 0.04 µM
[2]
  IC50: 14.2 ± 0.28 µM
[3]; A549, 2 μM
  Percentage of Cell Cycles (%) G1: 57.38%
  Percentage of Cell Cycles (%) G2/M: 10.54%
  Percentage of Cell Cycles (%) S: 32.08%
  Percentage of Cell Cycles (%) SubG1: 6.86%
[3]; A549, 4 μM
  Percentage of Cell Cycles (%) G1: 45.19%
  Percentage of Cell Cycles (%) G2/M: 42.40%
  Percentage of Cell Cycles (%) S: 12.41%
  Percentage of Cell Cycles (%) SubG1: 26.33%
[3]; A549, 8 μM
  Percentage of Cell Cycles (%) G1: 46.64%
  Percentage of Cell Cycles (%) G2/M: 0.06%
  Percentage of Cell Cycles (%) S: 53.30%
  Percentage of Cell Cycles (%) SubG1: 21.32%
[4]
  IC50: 37.99 ± 0.1 µM
[5]
  IC50: 59.3 ± 5.86 µM
[6]
  IC50: 6.93 ± 0.33 µM
[7]
  Morphological observation of cell apoptosis (Hoechst 33342/PI): could induce cell apoptosis and further cell necrosis

## O=C(OCCCCCOC(=O)c1cc2c3ccccc3n(Cc3ccccc3F)c2cn1)c1cc2c3ccccc3n(Cc3ccccc3F)c2cn1 [Compound 6u]
[1]
  IC50: 14.6 ± 0.36 µM
[2]
  IC50: 16.68 ± 0.11 µM
[3]; A549, 2 μM
  Percentage of Cell Cycles (%) G1: 56.24%
  Percentage of Cell Cycles (%) G2/M: 19.97%
  Percentage of Cell Cycles (%) S: 23.79%
  Percentage of Cell Cycles (%) SubG1: 6.84%
[3]; A549, 4 μM
  Percentage of Cell Cycles (%) G1: 47.06%
  Percentage of Cell Cycles (%) G2/M: 40.34%
  Percentage of Cell Cycles (%) S: 12.60%
  Percentage of Cell Cycles (%) SubG1: 46.25%
[3]; A549, 8 μM
  Percentage of Cell Cycles (%) G1: 81.62%
  Percentage of Cell Cycles (%) G2/M: 18.30%
  Percentage of Cell Cycles (%) S: 0.08%
  Percentage of Cell Cycles (%) SubG1: 44.92%
[4]
  IC50: 39.89 ± 0.05 µM
[5]
  IC50: 36 ± 2.99 µM
[6]
  IC50: 5.61 ± 0.04 µM
[7]
  Morphological observation of cell apoptosis (Hoechst 33342/PI): could induce cell apoptosis and further cell necrosis
